# Measurements reported in patent publication US12351565B2, “Aromatic compound and preparation method therefor and use thereof” (SHANGHAI JIANHE PHARMACEUTICAL & TECHNOLOGY CO. LTD., priority 2018, dated 2025).
# Where a name gives a salt, the structure may show the parent alone. Read-outs that look alike come from different tables or passages of the source.
# Key:
# C57 mice [1] = test: Forced swimming experiment, intraperitoneal administration to mice; format: in vivo; settings: for inhibition in vivo at 10 mg/kg: Mus musculus, ip
# Protocol: The forced-swimming test is currently the most widely used classic method to evaluate the antidepressant effects of compounds in rodents. […] The time in immobile state of experimental animal is observed and recorded, which can be used to evaluate the effect of antidepressant compounds.
# 1 h and 24 h after a single intraperitoneal administration of 10 mg/kg, forced swimming tests were respectively carried out to investigate the effects of different compounds on depression-like behaviors of C57 mice.
# (§1) Experimental animals were 6-week aged C57 mice, male, and C57 mice were purchased from Shanghai SLAC Laboratory Animal Co., Ltd., with a body weight of 20.45±0.19 g. Before the experiment, they arrived at the Animal Feeding Center of Shanghai Institute of Materia Medica, Chinese Academy of Sciences (Animal Production License: SCXK9[Shanghai]2004-0002, usage license: SYXK[Shanghai]2003-0029), and adapted for 3 days or more in animal facilities. They were bred at 6 animals/cage. The breeding environment was room temperature 23±0.2° C., with 12/12 hours alternation of day and night. Before the behavioral test, the animals should be moved to the behavioral test operation room 2 hours in advance to adapt to the environment and reduce their tension.
# Preparation of the test product: each test compound was accurately weighed and dissolved in 0.9% NaCl solution, mixed thoroughly, and prepared as a 1 mg/ml solution, set aside.
# (§2) 24 hours before the administration, the mice were placed in a cylindrical tank to adapt to the aquatic environment for 10 min. On the day of the behavioral test, the animals were respectively administered intraperitoneally once at 1 h and 24 h before the behavioral test. The mice were placed individually into a cylindrical glass tank with a height of 30 cm and a diameter of 20 cm. The water depth in the tank was 15 cm, so that the animals could not escape from the glass tank and their feet and tails could not touch the bottom of the tank, the water temperature was 23° C.-25° C. A 6 minute video was taken after the mouse entered into water. Since most animals were very active in the first two minutes, the immobility time in the following 4 minute were calculated (criterion of immobility: the mouse stops struggling in the water, stays still and has small limbs movement to maintain balance or to keep a floating state).
# (§3) The antidepressant effect of a compound was evaluated by the ability of the compound to reduce the immobility time of the animal in the forced swimming test as compared with the blank group. The shorter the immobility time of the animal to be tested, the higher the inhibition rate and the stronger the antidepressant activity. Inhibition rate1 h(%)=immobility time(blank, 1 h)−immobility time(administration, 1 h)/immobility time(blank, 1 h)×100% Inhibition rate24 h(%)=immobility time(blank, 24 h)−immobility time(administration, 24 h)/immobility time(blank, 24 h)×100%
# C57 mice [2] = test: Forced swimming experiment, oral administration to mice; format: in vivo; settings: for 1 h inhibition rate / 24 h inhibition rate: inhibition of immobility time, C57 mice; for 1 h inhibition rate: forced swimming 1 h after single oral (intragastric) 20 mg/kg; for 24 h inhibition rate: forced swimming 24 h after single oral (intragastric) 20 mg/kg
# Protocol: 1 h and 24 h after a single oral administration of 20 mg/kg, forced swimming experiments were then carried out to investigate the effects of different compounds on depression-like behavior in C57 mice.
# as §1, with “male,” for “male, and”
# Preparation of the test product: each test compound was accurately weighed and dissolved in 0.9% NaCl solution, mixed thoroughly, and prepared into 1 mg/ml and 2 mg/ml solutions respectively, and set aside.
# as §2, with “intragastrically” for “intraperitoneally”
# as §3, with “group.” for “group. The shorter the immobility time of the animal to be tested, the higher the inhibition rate and the stronger the antidepressant activity.”, “rate24h(%)=immobility” for “rate24 h(%)=immobility”
# [3] = 1 h, read-out: 1 h inhibition rate
# [4] = 24 h, read-out: 24 h inhibition rate
Structure (SMILES),inhibition in vivo at 10 mg/kg (C57 mice [1]; [3]),inhibition in vivo at 10 mg/kg (C57 mice [1]; [4]),1 h inhibition rate (C57 mice [2]),24 h inhibition rate (C57 mice [2]),other results
"Cl.NC1(c2cc(F)ccc2F)CCCC(O)C1=O (stereo not shown) [Comparative compound 1, reference compound]",17.4%,10.6%,–,–,"1 h inhibition rate (C57 mice [1]; inhibition of immobility time, forced swimming 1 h after single intraperitoneal 10 mg/kg, C57 mice): 17.4 ± 0.2%; 24 h inhibition rate (C57 mice [1]; inhibition of immobility time, forced swimming 24 h after single intraperitoneal 10 mg/kg, C57 mice): 10.6 ± 1.2%"
"CNC1(c2cccc(OC(F)(F)F)c2)CCCC(O)C1=O (stereo not shown) [Compound 39, 6-hydroxy-2-methylamino-2-(3-trifluoromethoxyphenyl)cyclohexane-1-one hydrochloride]",46.6 ± 1%,49.1 ± 3.7%,–,–,–
"N#Cc1cccc(C2(N)CCCC(O)C2=O)c1 (stereo not shown) [Compound 53, 3-(1-amino-3-hydroxy-2-oxocyclohexane)benzonitrile trifluoroacetate]",50.9 ± 2%,39.6 ± 3.2%,–,–,–
"Cl.NC1(c2cccc(OC(F)(F)F)c2F)CCCC(O)C1=O (stereo not shown) [Compound 59, 2-amino-2-(2-fluoro-3-(trifluoromethoxy)phenyl)-6-hydroxycyclohexane-1-one hydrochloride]",32 ± 2.2%,40.3 ± 4.9%,28.6 ± 1.8%,36.1 ± 1.6%,–
"Cl.N[C@]1(c2cccc(OC(F)(F)F)c2F)CCC[C@H](O)C1=O [Compound 65, (2S,6S)-2-amino-2-(2-fluoro-3-(trifluoromethoxy)phenyl)-6-hydroxycyclohexane-1-one hydrochloride]",–,–,23.8 ± 0.6%,32.0 ± 2.9%,–
"NC1(c2c(F)ccc(F)c2F)CCCC(O)C1=O (stereo not shown) [Compound 71, 2-amino-6-hydroxy-2-(2,3,6-trifluorophenyl)cyclohexane-1-one hydrochloride]",24.2 ± 4.7%,57.4 ± 4.4%,–,–,–
"CNCCC(Oc1ccc(C(F)(F)F)cc1)c1ccccc1 (stereo not shown) [Fluoxetine, fluoxetine, reference compound]",–,–,2.2 ± 1.2%,1.8 ± 1.3%,"antidepressant effect in the forced swimming experiment (C57 mice [2]; 1 hour and 24 hours, oral administration, in words): no antidepressant effect was shown; antidepressant effect in the forced swimming experiment (C57 mice [1]; 1 hour and 24 hours, intraperitoneal 10 mg/kg, in words): no obvious antidepressant effect; inhibition in vivo at 10 mg/kg (C57 mice [1]; inhibition of immobility time, forced swimming 1 h after single intraperitoneal 10 mg/kg, C57 mice, read-out: 1 h inhibition rate): -4.6 ± 2.3%; inhibition in vivo at 10 mg/kg (C57 mice [1]; inhibition of immobility time, forced swimming 24 h after single intraperitoneal 10 mg/kg, C57 mice, read-out: 24 h inhibition rate): 4.6 ± 1.8%"
